Results: ChEMBL document CHEMBL1944592 (Bioorg Med Chem Lett, 2012)

Tests used:
Type in all cases: functional, cell-based
[1] = target: T1, Peroxisome proliferator-activated receptor gamma (Homo sapiens) (UniProt P37231); experiment: Agonist activity at human PPARgamma expressed in MG-63 cells at 2 times EC50 concentration by reporter gene-based transactivation assay relative to PPARgamma full agonist
T1 sequence (whole entry): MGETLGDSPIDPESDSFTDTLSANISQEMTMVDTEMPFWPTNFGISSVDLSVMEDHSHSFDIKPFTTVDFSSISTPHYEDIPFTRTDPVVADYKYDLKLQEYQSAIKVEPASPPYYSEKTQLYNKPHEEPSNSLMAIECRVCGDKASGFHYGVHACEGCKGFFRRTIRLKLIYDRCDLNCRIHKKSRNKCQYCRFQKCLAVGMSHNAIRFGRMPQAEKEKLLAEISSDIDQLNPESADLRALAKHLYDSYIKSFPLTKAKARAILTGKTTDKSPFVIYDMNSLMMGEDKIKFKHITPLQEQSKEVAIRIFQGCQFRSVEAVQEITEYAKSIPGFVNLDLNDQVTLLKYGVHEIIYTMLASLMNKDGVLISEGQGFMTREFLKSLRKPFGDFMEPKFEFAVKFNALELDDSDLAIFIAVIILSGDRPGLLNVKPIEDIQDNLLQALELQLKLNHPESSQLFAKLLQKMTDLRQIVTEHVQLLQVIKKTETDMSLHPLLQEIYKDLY

[2] = target: T2, Peroxisome proliferator-activated receptor gamma (Homo sapiens, UniProt P37231); experiment: Agonist activity at human PPARgamma expressed in MG-63 cells by reporter gene-based transactivation assay
T2 sequence (P37231 whole entry): T1 sequence (whole entry)

[3] = target: T1, Peroxisome proliferator-activated receptor gamma (Homo sapiens); experiment: Partial agonist activity at human PPARgamma expressed in MG-63 cells at 2 times EC50 concentration by reporter gene-based transactivation assay relative to PPARgamma full agonist
[4] = target: T2, Peroxisome proliferator-activated receptor gamma; experiment: Partial agonist activity at human PPARgamma expressed in MG-63 cells by reporter gene-based transactivation assay

SMILES	Emax [1] [%]	EC50 [2] [µM]	Emax [3] [%]	EC50 [4] [µM]
COC(=O)CCCc1cc(CNC(=O)c2c(OC)cc(O)c3c2OC2=CC(O)=C(C(C)=O)C(=O)[C@]23C)c2ccccc2c1	99	0.042	–	–
COc1cc(O)c2c(c1C(=O)NCc1cc(CCC(=O)O)cc3ccccc13)OC1=CC(O)=C(C(C)=O)C(=O)[C@]12C	109	0.32	–	–
COc1cc(O)c2c(c1C(=O)NCc1cc(CCCC(=O)O)cc3ccccc13)OC1=CC(O)=C(C(C)=O)C(=O)[C@]12C	105	0.067	–	–
COC(=O)c1cc(CNC(=O)c2c(OC)cc(O)c3c2OC2=CC(O)=C(C(C)=O)C(=O)[C@]23C)c2ccccc2c1	–	–	55	0.88
COc1cc(O)c2c(c1C(=O)NCc1cc(C(=O)O)cc3ccccc13)OC1=CC(O)=C(C(C)=O)C(=O)[C@]12C	–	–	–	> 1
COc1cc(O)c2c(c1C(=O)NCc1cc(OC(C)=O)cc3ccccc13)OC1=CC(O)=C(C(C)=O)C(=O)[C@]12C	–	–	50	0.68
COc1cc(CNC(=O)c2c(OC)cc(O)c3c2OC2=CC(O)=C(C(C)=O)C(=O)[C@]23C)c2ccccc2c1	–	–	32	0.094
CCOc1cc(CNC(=O)c2c(OC)cc(O)c3c2OC2=CC(O)=C(C(C)=O)C(=O)[C@]23C)c2ccccc2c1	–	–	22	0.24
COc1cc(O)c2c(c1C(=O)NCc1cc(O)cc3ccccc13)OC1=CC(O)=C(C(C)=O)C(=O)[C@]12C	–	–	29	0.13
COC(=O)CCc1cc(CNC(=O)c2c(OC)cc(O)c3c2OC2=CC(O)=C(C(C)=O)C(=O)[C@]23C)c2ccccc2c1	–	–	79	0.13
COc1cc(O)c2c(c1C(=O)NCc1cc(C)cc3ccccc13)OC1=CC(O)=C(C(C)=O)C(=O)[C@]12C	–	–	51	0.21
COCc1cc(CNC(=O)c2c(OC)cc(O)c3c2OC2=CC(O)=C(C(C)=O)C(=O)[C@]23C)c2ccccc2c1	–	–	44	0.2
